# Source: ChEMBL document CHEMBL5465560, “Selectivity Literature for EUbOPEN Chemogenomic Library” (2024)
# Columns and labels:
# [1] = biological target: T1, Dual serine/threonine and tyrosine protein kinase (Homo sapiens) (UniProt Q6XUX3); experiment: Selectivity interaction (KinomeScan (DiscoverX)) EUB0000655a DSTYK; conditions: at 10 µM
# T1 sequence (whole entry): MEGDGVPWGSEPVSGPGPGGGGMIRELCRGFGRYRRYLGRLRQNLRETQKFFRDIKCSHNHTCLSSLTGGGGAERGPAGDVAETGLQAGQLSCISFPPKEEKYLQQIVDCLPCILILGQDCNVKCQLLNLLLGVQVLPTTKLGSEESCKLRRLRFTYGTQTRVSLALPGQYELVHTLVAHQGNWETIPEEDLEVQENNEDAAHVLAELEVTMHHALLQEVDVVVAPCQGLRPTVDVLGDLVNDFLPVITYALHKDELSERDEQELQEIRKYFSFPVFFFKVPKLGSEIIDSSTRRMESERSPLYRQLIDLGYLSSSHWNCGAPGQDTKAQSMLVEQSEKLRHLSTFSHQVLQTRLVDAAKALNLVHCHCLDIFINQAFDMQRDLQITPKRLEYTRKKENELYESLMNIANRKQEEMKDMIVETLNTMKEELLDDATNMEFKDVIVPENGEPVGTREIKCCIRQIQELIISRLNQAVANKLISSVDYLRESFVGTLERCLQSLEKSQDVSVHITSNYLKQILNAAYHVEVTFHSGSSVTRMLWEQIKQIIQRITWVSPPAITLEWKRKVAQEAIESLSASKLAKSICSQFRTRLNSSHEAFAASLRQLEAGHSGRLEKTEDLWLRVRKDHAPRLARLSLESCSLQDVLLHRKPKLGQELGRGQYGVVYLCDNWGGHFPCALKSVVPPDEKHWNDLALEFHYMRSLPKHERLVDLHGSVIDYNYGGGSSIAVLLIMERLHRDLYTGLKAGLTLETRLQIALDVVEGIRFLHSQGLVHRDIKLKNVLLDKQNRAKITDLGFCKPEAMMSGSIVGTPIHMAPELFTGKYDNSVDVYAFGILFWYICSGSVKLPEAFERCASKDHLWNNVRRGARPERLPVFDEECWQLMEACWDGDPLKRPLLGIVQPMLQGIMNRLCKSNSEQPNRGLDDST
# [2] = biological target: T2, Ephrin type-A receptor 8 (Homo sapiens) (UniProt P29322); experiment: Selectivity interaction (KinomeScan (DiscoverX)) EUB0000607a EPHA8; conditions: at 10 µM
# T2 sequence (whole entry): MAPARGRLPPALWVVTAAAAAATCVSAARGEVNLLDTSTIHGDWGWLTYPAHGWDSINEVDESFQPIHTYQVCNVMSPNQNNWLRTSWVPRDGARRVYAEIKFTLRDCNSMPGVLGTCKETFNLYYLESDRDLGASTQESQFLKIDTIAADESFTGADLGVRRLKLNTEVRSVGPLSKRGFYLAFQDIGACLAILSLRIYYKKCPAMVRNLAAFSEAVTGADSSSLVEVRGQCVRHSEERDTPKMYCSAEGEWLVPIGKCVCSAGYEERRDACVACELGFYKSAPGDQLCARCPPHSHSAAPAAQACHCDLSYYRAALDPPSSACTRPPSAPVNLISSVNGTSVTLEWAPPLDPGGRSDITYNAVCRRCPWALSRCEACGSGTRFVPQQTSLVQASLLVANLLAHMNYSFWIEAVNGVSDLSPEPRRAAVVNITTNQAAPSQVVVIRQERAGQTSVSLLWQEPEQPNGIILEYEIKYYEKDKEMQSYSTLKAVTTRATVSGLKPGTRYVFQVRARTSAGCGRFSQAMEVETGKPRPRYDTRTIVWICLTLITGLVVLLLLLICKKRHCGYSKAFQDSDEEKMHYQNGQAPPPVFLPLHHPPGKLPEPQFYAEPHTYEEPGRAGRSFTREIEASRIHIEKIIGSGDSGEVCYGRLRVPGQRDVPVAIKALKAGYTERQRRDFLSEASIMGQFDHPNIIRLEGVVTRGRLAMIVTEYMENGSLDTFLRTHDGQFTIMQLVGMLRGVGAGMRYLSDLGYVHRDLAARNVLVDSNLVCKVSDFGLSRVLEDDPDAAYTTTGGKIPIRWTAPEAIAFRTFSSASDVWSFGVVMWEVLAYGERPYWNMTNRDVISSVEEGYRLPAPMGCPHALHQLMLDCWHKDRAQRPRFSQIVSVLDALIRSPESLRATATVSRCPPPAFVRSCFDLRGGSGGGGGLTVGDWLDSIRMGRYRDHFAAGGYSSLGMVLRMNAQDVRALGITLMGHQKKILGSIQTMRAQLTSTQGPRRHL
# [3] = biological target: Casein kinase I isoform epsilon (Homo sapiens, UniProt P49674); experiment: Selectivity interaction (KinomeScan (DiscoverX)) EUB0001619a CSNK1E; conditions: at 1 µM
# Chain of Casein kinase I isoform epsilon (P49674 whole entry, looked up, canonical isoform): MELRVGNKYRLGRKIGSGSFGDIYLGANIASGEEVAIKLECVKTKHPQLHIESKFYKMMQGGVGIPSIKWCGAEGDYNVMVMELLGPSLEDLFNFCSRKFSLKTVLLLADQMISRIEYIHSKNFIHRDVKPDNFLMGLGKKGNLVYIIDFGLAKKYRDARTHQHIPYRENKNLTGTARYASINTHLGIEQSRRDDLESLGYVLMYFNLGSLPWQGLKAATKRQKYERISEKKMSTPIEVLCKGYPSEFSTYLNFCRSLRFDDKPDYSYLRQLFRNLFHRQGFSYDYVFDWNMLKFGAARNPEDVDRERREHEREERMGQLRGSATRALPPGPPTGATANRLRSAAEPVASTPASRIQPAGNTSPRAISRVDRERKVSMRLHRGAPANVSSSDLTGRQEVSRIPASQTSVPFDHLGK
structure (smiles),measurement,setting,value
CN(C)CCOc1ccc(-c2nc(-c3ccncc3)c(-c3ccc4c(c3)CC/C4=N\O)[nH]2)cc1,% of control,[1],83%
CNC(=O)Nc1ccc(-c2nc(N3CC4CCC(C3)O4)c3cnn(C4CCC5(CC4)OCCO5)c3n2)cc1,% of control,[2],81%
N#Cc1cccc(-c2c[nH]c3ncnc(N4CCOCC4)c23)c1,% of control,[3],75%
